What was measured:
cyclooxygenase-2 = target: T1, cyclooxygenase-2 (Mus musculus, UniProt Q05769); test: Cyclooxygenase-2 inhibition in aspirin-treated, LPS-induced mouse peritoneal macrophages (PGE2 ELISA); assay type: cell-based
T1 construct: blended with 3% FBS-RPMI 1640 medium containing 10 μg/ml of LPS in each well; endogenous in cells; host or cells: primary mouse peritoneal macrophages, pretreated with 500 μM aspirin and induced with LPS
T1 sequence (Q05769 18-604): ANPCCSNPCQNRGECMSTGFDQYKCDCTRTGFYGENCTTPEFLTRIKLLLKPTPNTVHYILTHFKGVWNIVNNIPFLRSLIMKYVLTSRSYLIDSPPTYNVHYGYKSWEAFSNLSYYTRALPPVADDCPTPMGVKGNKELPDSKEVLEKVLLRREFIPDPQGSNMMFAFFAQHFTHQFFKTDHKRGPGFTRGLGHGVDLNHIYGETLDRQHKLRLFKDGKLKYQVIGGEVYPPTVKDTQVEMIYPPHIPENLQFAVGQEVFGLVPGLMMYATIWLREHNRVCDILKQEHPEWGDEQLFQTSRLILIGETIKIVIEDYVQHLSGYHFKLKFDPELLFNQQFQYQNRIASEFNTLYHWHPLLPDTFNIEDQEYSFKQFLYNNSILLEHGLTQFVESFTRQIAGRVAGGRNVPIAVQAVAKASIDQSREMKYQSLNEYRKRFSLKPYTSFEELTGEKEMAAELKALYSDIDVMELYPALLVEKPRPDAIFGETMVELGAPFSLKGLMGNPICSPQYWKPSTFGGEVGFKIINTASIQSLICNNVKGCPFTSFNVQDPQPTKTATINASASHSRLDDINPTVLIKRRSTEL
Method: Second, the cyclooxygenase-2 was examined through the following procedure.
(§1) Peritoneal fluid in which macrophages were suspended was extracted from a mouse peritoneal cavity and centrifuged at 4° C., 1,000 rpm for 2 minutes. Then, the supernatant was removed, suspended using 20 ml of incomplete RPMI medium [PC/SM (penicilin/streptomycin)] and again centrifuged under the same condition. […] Then, the cell number was calculated with the hemocytometer and adjusted to reach 1×10^6 cells/ml of cell concentration in the final cell suspension. The resulting suspension was treated with aspirin, adjusting 500 μM of final concentration and poured into each well of 96-well plate in 100 μl respectively. Again, it was left with the incubator at 37° C. in 5% CO2 for about 2 hours in order to attach macrophages. […] The resulting cell was cultivated with the incubator at 37° C. in 5% CO2 for about 12˜16 hours. Then, arachidonic acid was added, adjusting to 10 μM of a final concentration and incubated at 37° C. for more 10 minutes and the supernatant of the reacted solution (˜180 μl) was recovered to finish the reaction.

cyclooxygenase-1 = target: T2, cyclooxygenase-1 (Mus musculus, UniProt P22437); test: Cyclooxygenase-1 inhibition in mouse peritoneal macrophages (PGE2 ELISA); assay type: cell-based
T2 construct: endogenous in cells; host or cells: primary mouse peritoneal macrophages (unstimulated)
T2 sequence (P22437 27-602): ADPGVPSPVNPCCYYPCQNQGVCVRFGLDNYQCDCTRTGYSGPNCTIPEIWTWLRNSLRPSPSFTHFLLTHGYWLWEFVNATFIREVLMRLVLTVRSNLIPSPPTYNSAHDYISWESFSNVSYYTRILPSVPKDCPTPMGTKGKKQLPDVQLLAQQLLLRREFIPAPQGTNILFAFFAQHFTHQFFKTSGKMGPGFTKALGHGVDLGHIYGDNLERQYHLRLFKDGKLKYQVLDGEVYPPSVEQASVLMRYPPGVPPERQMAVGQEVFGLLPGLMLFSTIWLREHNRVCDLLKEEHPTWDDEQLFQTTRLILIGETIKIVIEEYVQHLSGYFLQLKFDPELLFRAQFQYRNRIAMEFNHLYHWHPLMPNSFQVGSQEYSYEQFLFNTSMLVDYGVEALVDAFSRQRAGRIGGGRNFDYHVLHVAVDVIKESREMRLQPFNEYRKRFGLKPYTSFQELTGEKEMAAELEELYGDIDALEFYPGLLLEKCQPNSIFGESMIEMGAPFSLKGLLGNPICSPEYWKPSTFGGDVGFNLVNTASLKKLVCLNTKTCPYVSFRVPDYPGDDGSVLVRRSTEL
Method: First of all, the cyclooxygenase-1 was examined through the following procedure.
as §1, with “[including PC/SM” for “[PC/SM”, “was” for “was treated with aspirin, adjusting 500 μM of final concentration and”, “and” for “in 100 μl respectively. Again, it was”

Compound	Inhibitory effects of cyclooxygenase (COX): COX-2 (cyclooxygenase-2; 30 nM)	Inhibitory effects of cyclooxygenase (COX): COX-2 (cyclooxygenase-2; 100 nM)	Inhibitory effects of cyclooxygenase (COX): COX-2 (cyclooxygenase-2; 300 nM)	Inhibitory effects of cyclooxygenase (COX): COX-1 (cyclooxygenase-1; 3 μM) [% inhibition]	Inhibitory effects of cyclooxygenase (COX): COX-1 (cyclooxygenase-1; 10 μM) [% inhibition]	Inhibitory effects of cyclooxygenase (COX): COX-1 (cyclooxygenase-1; 30 μM) [% inhibition]
COc1ccc(-c2ccc(S(C)(=O)=O)cc2)cc1OC [Example 1, 4′-methanesulfonyl-3,4-dimethoxy-biphenyl]	46.2 % inhibition	50.7 % inhibition	59.7 % inhibition	44.4	50.5	64.7
CCOc1ccc(-c2ccc(S(C)(=O)=O)cc2)cc1OCC [Example 2, 4′-methanesulfonyl-3,4-diethoxy-biphenyl]	55.2 % inhibition	60.5 % inhibition	76.5 % inhibition	61.5	70.5	77.1
CCCOc1ccc(-c2ccc(S(C)(=O)=O)cc2)cc1OCCC [Example 3, 4′-methanesulfonyl-3,4-dipropyloxy-biphenyl]	5.0 % inhibition	5.5 % inhibition	10.1 % inhibition	9.4	10.1	23.4
CC(C)Oc1ccc(-c2ccc(S(C)(=O)=O)cc2)cc1OC(C)C [Example 4, 4′-methanesulfonyl-3,4-diisopropyloxy-biphenyl]	˜0 % inhibition	˜0 % inhibition	˜0 % inhibition	58.2	70.4	78.4
CS(=O)(=O)c1ccc(-c2ccc(OC3CC3)c(OC3CC3)c2)cc1 [Example 5, 4′-methanesulfonyl-3,4-dicyclopropyloxy-biphenyl]	30.2 % inhibition	33.3 % inhibition	46.5 % inhibition	50.3	58.4	60.4
CCCCOc1ccc(-c2ccc(S(C)(=O)=O)cc2)cc1OCCCC [Example 6, 4′-methanesulfonyl-3,4-dibutyloxy-biphenyl]	˜0 % inhibition	˜0 % inhibition	˜0 % inhibition	14.7	20.9	22.7
CS(=O)(=O)c1ccc(-c2ccc(OCc3ccccc3)c(OCc3ccccc3)c2)cc1 [Example 7, 4′-methanesulfonyl-3,4-dibenzyloxy-biphenyl]	47.6 % inhibition	60.3 % inhibition	68.4 % inhibition	36.8	40.5	41.1
CS(=O)(=O)c1ccc(-c2ccc(OC3CCCC3)c(OC3CCCC3)c2)cc1 [Example 8, 4′-methanesulfonyl-3,4-dicyclopentyloxy-biphenyl]	27.4 % inhibition	42.7 % inhibition	54.7 % inhibition	29.7	40.2	49.7
CCCCOc1cc(-c2ccc(S(C)(=O)=O)cc2)ccc1OC(C)C [Example 9, 3-butoxy-4-isopropoxy-4′-methanesulfonyl-biphenyl]	44.2 % inhibition	59.8 % inhibition	70.4 % inhibition	49.8	66.4	70.8

Source: US20030105095A1 (CHEIL JEDANG Corporation, priority 2001, published 2003)
